Assay results taken from ChEMBL document CHEMBL3885881, “DrugMatrix”.

Organism: Rattus norvegicus
Test: DrugMatrix - Regimen: Daily Repeat
Assay type: toxicity, organism-based, Sprague-Dawley
Design: regimen Daily Repeat, gender Male, age 6-8 weeks
Conditions: in vivo, po, route oral GAVAGE, vehicle 100 % WATER; for ABSOLUTE BASOPHIL / ABSOLUTE EOSINOPHIL / ABSOLUTE LYMPHOCYTE / ABSOLUTE MONOCYTE / ABSOLUTE SEGMENTED NEUTROPHIL / BASOPHIL / EOSINOPHIL / ERYTHROCYTE COUNT / HEMATOCRIT / HEMOGLOBIN / LEUKOCYTE COUNT / LYMPHOCYTE / MEAN CORPUSCULAR HEMOGLOBIN / MEAN CORPUSCULAR HEMOGLOBIN CONCENTRATION / MEAN CORPUSCULAR VOLUME / MONOCYTE / NEUTROPHIL / NUCLEATED RED BLOOD CELLS / PLATELET COUNT: tissue Blood; for ALANINE AMINOTRANSFERASE / ALBUMIN / ALKALINE PHOSPHATASE / ASPARTATE AMINOTRANSFERASE / BLOOD UREA NITROGEN / CARBON DIOXIDE / CHLORIDE / CHOLESTEROL / CREATINE PHOSPHOKINASE / CREATININE / GLUCOSE / LACTATE DEHYDROGENASE / LIPASE / PHOSPHORUS / POTASSIUM / SODIUM / TOTAL BILIRUBIN / TOTAL PROTEIN / URIC ACID: tissue Plasma
[1] = 2 mg/kg, 120 h, dose level Low, time 5 day
[2] = 184 mg/kg, 72 h, dose level High, time 3 day
[3] = 184 mg/kg, 120 h, dose level High, time 5 day

SMILES: C[C@]12C=CC(=O)C=C1CC[C@@H]1[C@@H]2[C@@H](O)C[C@@]2(C)[C@H]1CC[C@]2(O)C(=O)CO [PREDNISOLONE]
- ABSOLUTE BASOPHIL [1]: 0 CELLS/uL
- ABSOLUTE EOSINOPHIL [1]: 0 CELLS/uL
- ABSOLUTE LYMPHOCYTE [1]: 11293 CELLS/uL
- ABSOLUTE MONOCYTE [1]: 44.33 CELLS/uL
- ABSOLUTE SEGMENTED NEUTROPHIL [1]: 929.33 CELLS/uL
- BASOPHIL [1]: 0%
- EOSINOPHIL [1]: 0%
- ERYTHROCYTE COUNT [1]: 6.06 x10E6/uL
- HEMATOCRIT [1]: 36.67%
- HEMOGLOBIN [1]: 14.5 G/DL
- LEUKOCYTE COUNT [1]: 12.27 x10E3/uL
- LYMPHOCYTE [1]: 92.33%
- MEAN CORPUSCULAR HEMOGLOBIN [1]: 23.9 pg
- MEAN CORPUSCULAR HEMOGLOBIN CONCENTRATION [1]: 39.53 G/DL
- MEAN CORPUSCULAR VOLUME [1]: 60.53 fL
- MONOCYTE [1]: 0.33%
- NEUTROPHIL [1]: 7.33%
- NUCLEATED RED BLOOD CELLS [1]: 0.33 /100WBC
- PLATELET COUNT [1]: 1186.33 x10E3/uL
- ALANINE AMINOTRANSFERASE [1]: 41.33 u/L
- ALBUMIN [1]: 4.37 G/DL
- ALKALINE PHOSPHATASE [1]: 333.67 u/L
- ASPARTATE AMINOTRANSFERASE [1]: 88.67 u/L
- BLOOD UREA NITROGEN [1]: 16.33 mg/dL
- CARBON DIOXIDE [1]: 26.67 mmol/L
- CHLORIDE [1]: 101 MEQ/L
- CHOLESTEROL [1]: 55.33 mg/dL
- CREATINE PHOSPHOKINASE [1]: 433 u/L
- CREATININE [1]: 0.17 mg/dL
- GLUCOSE [1]: 143.33 mg/dL
- LACTATE DEHYDROGENASE [1]: 390.33 u/L
- LIPASE [1]: 9 u/L
- PHOSPHORUS [1]: 10.87 mg/dL
- POTASSIUM [1]: 5.88 MEQ/L
- SODIUM [1]: 142.2 MEQ/L
- TOTAL BILIRUBIN [1]: 0.23 mg/dL
- TOTAL PROTEIN [1]: 6.1 G/DL
- URIC ACID [1]: 1.87 mg/dL
- ABSOLUTE BASOPHIL [2]: 0 CELLS/uL
- ABSOLUTE EOSINOPHIL [2]: 0 CELLS/uL
- ABSOLUTE LYMPHOCYTE [2]: 4216.33 CELLS/uL
- ABSOLUTE MONOCYTE [2]: 85 CELLS/uL
- ABSOLUTE SEGMENTED NEUTROPHIL [2]: 2332 CELLS/uL
- BASOPHIL [2]: 0%
- EOSINOPHIL [2]: 0%
- ERYTHROCYTE COUNT [2]: 6.23 x10E6/uL
- HEMATOCRIT [2]: 38.3%
- HEMOGLOBIN [2]: 14.57 G/DL
- LEUKOCYTE COUNT [2]: 6.63 x10E3/uL
- LYMPHOCYTE [2]: 63.67%
- MEAN CORPUSCULAR HEMOGLOBIN [2]: 23.4 pg
- MEAN CORPUSCULAR HEMOGLOBIN CONCENTRATION [2]: 38.03 G/DL
- MEAN CORPUSCULAR VOLUME [2]: 61.47 fL
- MONOCYTE [2]: 1.33%
- NEUTROPHIL [2]: 35%
- NUCLEATED RED BLOOD CELLS [2]: 0 /100WBC
- PLATELET COUNT [2]: 1200 x10E3/uL
- ALANINE AMINOTRANSFERASE [2]: 57.33 u/L
- ALBUMIN [2]: 5.07 G/DL
- ALKALINE PHOSPHATASE [2]: 269.33 u/L
- ASPARTATE AMINOTRANSFERASE [2]: 67 u/L
- BLOOD UREA NITROGEN [2]: 18.67 mg/dL
- CARBON DIOXIDE [2]: 25 mmol/L
- CHLORIDE [2]: 99 MEQ/L
- CHOLESTEROL [2]: 84.33 mg/dL
- CREATINE PHOSPHOKINASE [2]: 258 u/L
- CREATININE [2]: 0.22 mg/dL
- GLUCOSE [2]: 170 mg/dL
- LACTATE DEHYDROGENASE [2]: 120.33 u/L
- LIPASE [2]: 12.33 u/L
- PHOSPHORUS [2]: 11.57 mg/dL
- POTASSIUM [2]: 5.92 MEQ/L
- SODIUM [2]: 142.73 MEQ/L
- TOTAL BILIRUBIN [2]: 0.17 mg/dL
- TOTAL PROTEIN [2]: 7.07 G/DL
- URIC ACID [2]: 2.57 mg/dL
- ABSOLUTE BASOPHIL [3]: 0 CELLS/uL
- ABSOLUTE EOSINOPHIL [3]: 20.33 CELLS/uL
- ABSOLUTE LYMPHOCYTE [3]: 3939 CELLS/uL
- ABSOLUTE MONOCYTE [3]: 40.67 CELLS/uL
- ABSOLUTE SEGMENTED NEUTROPHIL [3]: 2333.33 CELLS/uL
- BASOPHIL [3]: 0%
- EOSINOPHIL [3]: 0.33%
- ERYTHROCYTE COUNT [3]: 6.44 x10E6/uL
- HEMATOCRIT [3]: 38.23%
- HEMOGLOBIN [3]: 15.03 G/DL
- LEUKOCYTE COUNT [3]: 6.33 x10E3/uL
- LYMPHOCYTE [3]: 61.33%
- MEAN CORPUSCULAR HEMOGLOBIN [3]: 23.4 pg
- MEAN CORPUSCULAR HEMOGLOBIN CONCENTRATION [3]: 39.37 G/DL
- MEAN CORPUSCULAR VOLUME [3]: 59.4 fL
- MONOCYTE [3]: 0.67%
- NEUTROPHIL [3]: 37.67%
- NUCLEATED RED BLOOD CELLS [3]: 0.33 /100WBC
- PLATELET COUNT [3]: 1142.33 x10E3/uL
- ALANINE AMINOTRANSFERASE [3]: 78.33 u/L
- ALBUMIN [3]: 5.07 G/DL
- ALKALINE PHOSPHATASE [3]: 230.33 u/L
- ASPARTATE AMINOTRANSFERASE [3]: 90.33 u/L
- BLOOD UREA NITROGEN [3]: 18.67 mg/dL
- CARBON DIOXIDE [3]: 23.33 mmol/L
- CHLORIDE [3]: 100 MEQ/L
- CHOLESTEROL [3]: 63.67 mg/dL
- CREATINE PHOSPHOKINASE [3]: 788.33 u/L
- CREATININE [3]: 0.21 mg/dL
- GLUCOSE [3]: 184.67 mg/dL
- LACTATE DEHYDROGENASE [3]: 177.67 u/L
- LIPASE [3]: 11.67 u/L
- PHOSPHORUS [3]: 10.9 mg/dL
- POTASSIUM [3]: 5.41 MEQ/L
- SODIUM [3]: 145.27 MEQ/L
- TOTAL BILIRUBIN [3]: 0.23 mg/dL
- TOTAL PROTEIN [3]: 6.93 G/DL
- URIC ACID [3]: 1.27 mg/dL
